In patent US7919495B2, “Pyridyl non-aromatic nitrogen-containing heterocyclic-1-carboxylate compound” (Astellas Pharma, Inc., priority 2005, dated 2011):

What was measured:
[1] = biological target: T1, FAAH in human bladder epithelial cancer-derived cell line 5678 cells (Homo sapiens, UniProt O00519); test: Screening for FAAH activity-inhibiting substance with human bladder epithelial cancer-derived cell (IC50, Table 64); type: cell-based
T1 construct: host or cells: human bladder epithelial cancer-derived cell line ('5678' [sic], HTB-9)
T1 sequence (O00519 1-579): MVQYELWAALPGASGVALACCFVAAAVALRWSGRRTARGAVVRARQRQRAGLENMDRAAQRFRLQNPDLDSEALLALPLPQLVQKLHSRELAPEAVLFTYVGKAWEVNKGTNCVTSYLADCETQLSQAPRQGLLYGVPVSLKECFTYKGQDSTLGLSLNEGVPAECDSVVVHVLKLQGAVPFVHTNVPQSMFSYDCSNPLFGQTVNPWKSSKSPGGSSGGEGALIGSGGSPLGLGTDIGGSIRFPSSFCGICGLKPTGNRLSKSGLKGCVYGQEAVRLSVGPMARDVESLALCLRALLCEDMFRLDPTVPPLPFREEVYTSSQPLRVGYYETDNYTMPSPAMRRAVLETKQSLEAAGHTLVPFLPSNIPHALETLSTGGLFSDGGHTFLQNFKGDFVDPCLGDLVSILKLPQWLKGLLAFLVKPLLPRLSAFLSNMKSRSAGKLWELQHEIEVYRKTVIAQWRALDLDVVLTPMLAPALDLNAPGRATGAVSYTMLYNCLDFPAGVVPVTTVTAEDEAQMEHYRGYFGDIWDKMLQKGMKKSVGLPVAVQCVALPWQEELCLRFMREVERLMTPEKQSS
Experimental: Screening for FAAH Activity-Inhibiting Substance with Human Bladder Epithelial Cancer-Derived Cell
(1) Screening for FAAH Activity-Inhibiting Substance:
Human bladder epithelial cancer-derived cell line […] cells (HTB-9; ATCC) were seeded on a 48-well cell culture plate in an amount of 1×10^5 cell/well, using 10% fetal bovine serum (HyClone)-containing RPMI1640 medium (Invitrogen). After incubated at 37° C. for at least 12 hours, the cells were washed with 400 μl/well of a buffer (Hank's Balanced Salt Solution, 20 mM Hepes-NaOH (pH 7.4)). A test substance dissolved in DMSO was added to a substrate solution (the above buffer containing 3 μCi/ml radiolabeled anandamide (Anandamide [ethanolamine 1-3H]) and 10 μM anandamide) so as to have a concentration of from 0.003 nM to 30 nM. As a control, DMSO alone was added. 100 μl/well of the substrate solution was added to the above cells, and incubated in a CO2 incubator at 37° C. for 30 minutes. Next, the cell culture plate was transferred onto ice, and the substrate solution was removed by suction; and 75 μl/well of a cytolytic solution (the above buffer containing 0.5% Triton X-100, and 10 μM of FAAH-inhibitory activity-having compound, 3′-carbamoylbiphenyl-3-yl cyclohexylcarbamate (URB597; Cayman chemical; Kathuria et al., Nature Med., Vol. 9, pp. 76-81, 2003)) was added thereto, followed by stirring. The resulting cell lysate in every well was individually transferred into a 1.5 ml sample tube, to which was added 150 μl of 1:1 (by volume) chloroform/methanol solution, followed by vortexing. This was centrifuged (15000 rpm, 2 minutes), whereby the decomposed product, ethanolamine (ethanolamine 1-^3H) was separated in the upper layer (water/methanol layer) and the unreacted radiolabeled anandamide was in the lower layer (chloroform layer). 25 μl of the upper layer was transferred into a 96-well organic solvent-resistant white microplate (PicoPlate-96; Perkin Elmer), 150 μl of Microscint-20 (Perkin Elmer) was added thereto, and this was measured with a microplate scintillation counter (TopCount™; Beckman). As compared with the control, the substance that gave a decreased value was selected as an FAAH activity-inhibiting substance.
(2) Measurement of IC50 Value of FAAH Activity-Inhibiting Substance:
A test compound dissolved in DMSO to have a concentration of 10 mM was dissolved in the substrate solution so as to have a varying concentration of from 0.003 nM to 30 μM. According to the method mentioned above, the compound was analyzed for its influence on FAAH activity. As a negative control, DMSO was used. As a positive control, URB597 was added to the substrate solution to have a concentration of 10 μM. Based on the measured value of the positive control, 0%, and on the measured value of the negative control, 100%, IC50 value of the test substance was obtained.

[2] = biological target: FAAH (rat brain homogenate) (Rattus norvegicus, UniProt P97612); test: biochemical
FAAH (rat brain homogenate), sequence (P97612 whole entry): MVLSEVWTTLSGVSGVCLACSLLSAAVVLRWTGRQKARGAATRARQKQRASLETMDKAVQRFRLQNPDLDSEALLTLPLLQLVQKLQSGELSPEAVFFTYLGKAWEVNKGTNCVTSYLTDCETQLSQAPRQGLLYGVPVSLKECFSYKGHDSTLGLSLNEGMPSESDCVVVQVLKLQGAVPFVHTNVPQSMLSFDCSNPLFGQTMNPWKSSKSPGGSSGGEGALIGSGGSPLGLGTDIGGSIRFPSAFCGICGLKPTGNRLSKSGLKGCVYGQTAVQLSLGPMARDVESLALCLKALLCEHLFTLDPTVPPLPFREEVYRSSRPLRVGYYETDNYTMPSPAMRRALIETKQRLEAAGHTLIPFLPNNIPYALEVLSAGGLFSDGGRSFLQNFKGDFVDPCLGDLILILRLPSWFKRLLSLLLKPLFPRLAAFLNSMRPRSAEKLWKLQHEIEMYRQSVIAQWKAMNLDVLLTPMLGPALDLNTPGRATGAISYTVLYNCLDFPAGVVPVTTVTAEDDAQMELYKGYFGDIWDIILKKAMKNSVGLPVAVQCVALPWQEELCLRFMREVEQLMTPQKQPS

[3] = system: CPA-induced urinary frequency in rat; test: animal or person; type: in vivo; details: po, 48 h, read-out: effective dose (increase of reduced effective bladder capacity)

Row | SMILES | IC50 [1] [nM] | IC50 [2] [nM] | minimal effective dose [3] [mg/kg]
1 | N#Cc1cccc(COc2ccc(C(=O)N3CCN(C(=O)Oc4cccnc4)CC3)cc2)c1 [Example 151] | 0.17 | 27 | –
2 | O=C(Oc1cccnc1)N1CCC(Oc2ccc(OCc3cccc(F)c3)cc2)CC1 [Example 2, (pyridin-3-yl) 4-{4-[(3-fluorobenzyl)oxy]phenoxy}piperidine-1-carboxylate] | 0.11 | 0.14 | 3
3 | NC(=O)c1cncc(OC(=O)N2CCC(CCc3cccc(C(=O)N4CCCC4)c3)CC2)c1 [Example 359] | 0.52 | 1.3 | 1
4 | O=C(O)c1cncc(OC(=O)N2CCC(Oc3ccc(OCc4cccc(F)c4)cc3)CC2)c1 [Example 218, 5-{[(4-{4-[(3-fluorobenzyl)oxy]phenoxy}piperidin-1-yl)carbonyl]oxy}nicotinic acid] | 0.44 | – | 3
5 | O=C(O)c1cncc(OC(=O)N2CCC(Oc3ccc(OCCC4CCCCC4)cc3)CC2)c1 [Example 228] | 0.22 | 0.19 | 1
